This note sets out measurements from patent US9371292B2, “Quinazoline derivative, preparation method therefor, intermediate, composition and application thereof” (SHANGHAI PHARMACEUTICALS HOLDINGS CO., LTD., priority 2011, dated 2016).

Molecules are shown by their SMILES.

The test system of one assay is A431 cell. The assay can be described thus: Proliferation inhibition, A431 cells (CellTiter-Glo). Format: cell-based. The settings on record: Homo sapiens, A-431, 48 hours. How it is done: (§1) This example is to determine the proliferation inhibitory activity against wide type of high expression cell lines A431 of EGFR and mutant cell lines NCI-H1975^L858RT790M, the proliferation inhibitory activity in cell-based level of compound is expressed by IC50. The test method is as follows: both cell lines are purchased from American type culture collection (ATCC). The cells are seeded in a white and opaque 384-well culture plate with a proper concentration (A431: 20000 cells/ml medium; H1975: 15000 cells/ml medium), cultured at 37° C. with 5% CO2 for 24 hrs, a series of medicine with gradient concentration is added, generally 10 concentrations, cultured for another 48 hours under the previous conditions. The assays of the proliferation inhibitory activity against the A431 and H1975 cell of the test compounds are performed by the CellTiter-Glo Luminescent Cell Viability Assay and calculate the proliferation inhibitory activity of compound with different concentrations. CellTiter-Glo Luminescent Cell Viability Assay is purchased from Promega. Fit the data of proliferation inhibitory activity against A431 and H1975 of compounds with different concentrations with 4-parameter equation.
A general note: Cellular ATP, detected with luciferase, serves as a proxy for viable cell number.

The test system of assay [1] is NCI-H1975 L858R T790M cell. In words: Proliferation inhibition, H1975 cells (CellTiter-Glo). Format: cell-based. The settings on record: Homo sapiens, 48 hours. How it is done:
as §1

A further assay addresses T1, EGFR tyrosine kinase (Homo sapiens, UniProt P00533).
T1 construct: purchased Sigma Aldrich
The assay can be described thus: HTRF assay, inhibition of EGFR tyrosine kinase. To be noted: HTRF method. Format: biochemical. How it is done: The activity of inhibitory against the kinase of the test compound is expressed by IC50. The assays are performed by Homogeneous time-resolved fluorescence (HTRF) method which is as follows: a series of synthesized analogues with gradient concentration are incubated for 5 minutes in enzymatic solution with specific concentration (for EGFR) at room temperature. Then proper amount of substrate and ATP are added into the reaction mixture to start the enzyme reaction. The assays of the specific concentration of compound is measured by Flexstation III of Molecular device company after the stop buffer and detecting liquid are added to the enzyme reaction system and hatch at room temperature for 1 hour. And the activity of inhibitory against the kinase of the test compound with different concentration will be calculated, then according to the 4-parameter equation, fit the inhibitory activity of the test compound with different concentration to get the IC50. EGFR is purchased from Sigma Aldrich. The HTRF KinEASE-TK is purchased from Cisbio Bioassays. ATP is purchased from Sigma Aldrich.
A general note: Time-resolved FRET reads energy transfer from a long-lived donor to a nearby acceptor.

T1 sequence (P00533 25-1210): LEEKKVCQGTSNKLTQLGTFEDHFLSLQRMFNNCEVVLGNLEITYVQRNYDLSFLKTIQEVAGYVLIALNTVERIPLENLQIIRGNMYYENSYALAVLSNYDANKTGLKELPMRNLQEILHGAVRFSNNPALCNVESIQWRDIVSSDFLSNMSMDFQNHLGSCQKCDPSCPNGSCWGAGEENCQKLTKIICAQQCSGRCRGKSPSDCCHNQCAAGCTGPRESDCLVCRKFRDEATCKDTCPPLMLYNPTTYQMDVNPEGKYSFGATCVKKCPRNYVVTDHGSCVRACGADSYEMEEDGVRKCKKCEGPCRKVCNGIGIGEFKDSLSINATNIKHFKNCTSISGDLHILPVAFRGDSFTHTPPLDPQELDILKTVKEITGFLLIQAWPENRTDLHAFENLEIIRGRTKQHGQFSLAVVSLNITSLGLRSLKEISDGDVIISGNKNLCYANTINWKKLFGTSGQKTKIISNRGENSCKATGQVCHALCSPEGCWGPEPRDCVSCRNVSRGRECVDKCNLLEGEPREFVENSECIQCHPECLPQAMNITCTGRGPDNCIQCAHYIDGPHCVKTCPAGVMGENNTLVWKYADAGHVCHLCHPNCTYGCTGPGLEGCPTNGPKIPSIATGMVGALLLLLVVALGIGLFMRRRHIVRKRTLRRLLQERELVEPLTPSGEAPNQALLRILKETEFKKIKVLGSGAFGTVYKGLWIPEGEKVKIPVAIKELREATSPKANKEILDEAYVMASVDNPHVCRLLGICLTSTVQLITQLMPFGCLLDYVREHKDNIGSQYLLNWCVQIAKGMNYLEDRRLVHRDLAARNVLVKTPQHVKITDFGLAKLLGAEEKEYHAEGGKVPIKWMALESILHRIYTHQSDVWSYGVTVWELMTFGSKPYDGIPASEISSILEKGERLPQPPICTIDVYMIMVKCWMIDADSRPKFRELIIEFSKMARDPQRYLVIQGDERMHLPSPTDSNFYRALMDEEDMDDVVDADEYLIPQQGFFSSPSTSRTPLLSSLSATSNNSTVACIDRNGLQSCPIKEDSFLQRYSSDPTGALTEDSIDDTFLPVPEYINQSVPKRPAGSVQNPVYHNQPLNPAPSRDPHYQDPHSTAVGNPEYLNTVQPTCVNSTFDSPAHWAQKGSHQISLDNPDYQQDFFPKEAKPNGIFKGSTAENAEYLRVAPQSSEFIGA

The term IC50 denotes the concentration at which inhibition is half-maximal. A lower IC50 goes with inhibition by little substance. For `C=C(F)C(=O)Nc1cc2c(Nc3ccc(F)c(Cl)c3F)ncnc2cc1O[C@@H]1CCN(C)C1` [Compound 50, (R)-N-[4-(3-chloro-2,4-difluoro-phenylamino)-7-(1-methyl-pyrrolidin-3-yloxy)-quinazolin-6-yl]-2-fluoro-acrylamide], the IC50 worked out at 15 µM in the assay with A431 cell, 2.4 µM in assay [1] and 5.5 nM against EGFR tyrosine kinase.

As for `C=C(Cl)C(=O)Nc1cc2c(Nc3ccc(F)c(Cl)c3)ncnc2cc1OC` [Compound 57, N-[4-(3-chloro-4-fluoro-phenylamino)-7-methoxy-quinazolin-6-yl]-2-chloro-acrylamide], the IC50 with A431 cell came to 7.5 µM; in assay [1], 1.3 µM; against EGFR tyrosine kinase, 0.13 nM.

Consider `C=C(F)C(=O)Nc1cc2c(Nc3ccc(F)c(Cl)c3)ncnc2cc1OC1CCN(C)C1` (stereo in doubt) [Compound 64, (S)-N-[4-(3-chloro-4-fluoro-phenylamino)-7-(1-methyl-pyrrolidin-3-yloxy)-quinazolin-6-yl]-2-fluoro-acrylamide], for which the IC50 is 3.6 µM in the assay on A431 cell, 2.7 µM in assay [1] and 4.5 nM at EGFR tyrosine kinase.

As for `C=C(F)C(=O)Nc1cc2c(Nc3ccc(F)c(Cl)c3)ncnc2cc1OCCCN1CCCCC1` [Compound 40, N-[4-(3-chloro-4-fluoro-phenylamino)-7-(3-piperidin-l-yl-propoxy)-quinazolin-6-yl]-2-fluoro-acrylamide], the IC50 was determined as 1.3 µM in the assay on A431 cell, 3.4 µM in assay [1] and 1 nM against EGFR tyrosine kinase.

With `COc1cc2ncnc(Nc3ccc(F)c(Cl)c3)c2cc1NC(=O)/C(F)=C/CN1CCOCC1` [Compound 22-1, (Z)-N-(4-((3-chloro-4-fluorophenyl)amino)-7-methoxyquinazolin-6-yl)-2-fluoro-4-morpholinobut-2-enamide], the IC50 was determined as 8.1 µM in the assay on A431 cell, 3.7 µM in assay [1] and 0.53 nM on EGFR tyrosine kinase.

`C=C(F)C(=O)Nc1cc2c(Nc3ccc(F)c(F)c3F)ncnc2cc1OCCCN1CCOCC1` [Compound 32, N-[7-(3-morpholin-4-yl-propoxy)-4-(2,3,4-trifluoro-phenylamino)-quinazolin-6-yl]-2-fluoro-acrylamide]: the concentration for half-maximal inhibition (IC50) is 4.2 µM with A431 cell, 5.6 µM in assay [1] and 0.72 nM against EGFR tyrosine kinase.

For `C=C(F)C(=O)Nc1cc2c(Nc3ccc(F)c(Cl)c3F)ncnc2cc1O[C@H]1CCN(C)C1` [Compound 51, (S)-N-[4-(3-chloro-2,4-difluoro-phenylamino)-7-(1-methyl-pyrrolidin-3-yloxy)-quinazolin-6-yl]-2-fluoro-acrylamide], the IC50 in the assay on A431 cell is 20 µM; in assay [1], 7.3 µM; against EGFR tyrosine kinase, 4.9 nM.

With `C#Cc1cccc(Nc2ncnc3cc(OCCCN4CCOCC4)c(NC(=O)C(=C)F)cc23)c1` [Compound 25, N-[4-(3-ethynyl-phenylamino)-7-(3-morpholin-4-yl-propoxy)-quinazolin-6-yl]-2-fluoro-acrylamide], the 50% inhibitory concentration (IC50) stood at 1.2 µM in the assay on A431 cell, 1.9 µM in assay [1] and 0.19 nM at EGFR tyrosine kinase.

Regarding `C=C(F)C(=O)Nc1cc2c(Nc3ccc(F)c(Cl)c3)ncnc2cc1OCCCN1CCN(C)CC1` [Compound 44, N-{4-(3-chloro-4-fluoro-phenylamino)-7-[3-(4-methyl-piperazin-1-yl)-propoxy]-quinazolin-6-yl}-2-fluoro-acrylamide], the IC50 in the assay with A431 cell was determined as 0.53 µM; in assay [1], 3.7 µM; against EGFR tyrosine kinase, 0.29 nM.

As for `C=C(F)C(=O)Nc1cc2c(Nc3ccc(Br)cc3F)ncnc2cc1OCCCN1CCOCC1` [Compound 23, N-[4-(4-Bromo-2-fluoro-phenylamino)-7-(3-morpholin-4-yl-propoxy)-quinazolin-6-yl]-2-fluoro-acrylamide], the 50% inhibitory concentration (IC50) with A431 cell turned out to be 1.3 µM; in assay [1] it was 3 µM; on EGFR tyrosine kinase, 1.6 nM.

As to `C=C(F)C(=O)Nc1cc2c(Nc3ccc(F)c(Cl)c3)ncnc2cc1OC` [Compound 56, N-[4-(3-chloro-4-fluoro-phenylamino)-7-methoxy-quinazolin-6-yl]-2-fluoro-acrylamide], the IC50 in the assay with A431 cell came to 2.8 µM; in assay [1], 0.51 µM; against EGFR tyrosine kinase, 0.22 nM.

As to `C=C(F)C(=O)Nc1cc2c(Nc3ccc(F)c(Cl)c3)ncnc2cc1OCCCN1CCCC1` [Compound 43, N-[4-(3-chloro-4-fluoro-phenylamino)-7-(3-pyrrolidin-l-yl-propoxy)-quinazolin-6-yl]-2-fluoro-acrylamide], the IC50 with A431 cell was 1.68 µM; in assay [1], 3.4 µM; against EGFR tyrosine kinase, 1.3 nM.

In the case of `C=C(Cl)C(=O)Nc1cc2c(Nc3ccc(F)c(Cl)c3)ncnc2cc1OCCCN1CCOCC1` [Compound 35, N-[4-(3-chloro-4-fluoro-phenylamino)-7-(3-morpholin-4-yl-propoxy)-quinazolin-6-yl]-2-chloro-acrylamide], the IC50 in the assay on A431 cell is greater than 100 µM; in assay [1], 8.5 µM; at EGFR tyrosine kinase it was 0.97 nM.

As for `C=C(F)C(=O)Nc1cc2c(Nc3ccc(F)c(Cl)c3F)ncnc2cc1OCC1CCC1` [Compound 47, N-[4-(3-chloro-2,4-difluoro-phenylamino)-7-cyclobutylmethoxy-quinazolin-6-yl]-2-fluoro-acrylamide], the IC50 in the assay on A431 cell turned out to be 14 µM; in assay [1], 1.5 µM; against EGFR tyrosine kinase it was 1.88 nM.

For the compound `C=C(F)C(=O)Nc1cc2c(Nc3cccc(Cl)c3F)ncnc2cc1OCCCN1CCOCC1` [Compound 26, N-[4-(3-chloro-2-fluoro-phenylamino)-7-(3-morpholin-4-yl-propoxy)-quinazolin-6-yl]-2-fluoro-acrylamide], the IC50 with A431 cell was determined as 4.5 µM; in assay [1], 5.4 µM; against EGFR tyrosine kinase, 0.35 nM.

Consider `C=C(F)C(=O)Nc1cc2c(Nc3cccc(C(F)(F)F)c3)ncnc2cc1OC` [Compound 54, N-[7-methoxy-4-(3-trifluoromethyl-phenylamino)-quinazolin-6-yl]-2-fluoro-acrylamide], for which the IC50 with A431 cell came out at 3.8 µM; in assay [1] it was 13 µM; against EGFR tyrosine kinase, 1.1 nM.

With `C=C(Cl)C(=O)Nc1cc2c(Nc3cccc(C(F)(F)F)c3)ncnc2cc1OCC` [Compound 58, N-[7-ethoxy-4-(3-trifluoromethyl-phenylamino)-quinazolin-6-yl]-2-chloro-acrylamide], the IC50 with A431 cell worked out at 27 µM; in assay [1], 8.3 µM; against EGFR tyrosine kinase, 1 nM.

Take `C=C(F)C(=O)Nc1cc2c(Nc3cccc(C(F)(F)F)c3)ncnc2cc1OCC` [Compound 55, N-[7-ethoxy-4-(3-trifluoromethyl-phenylamino)-quinazolin-6-yl]-2-fluoro-acrylamide]: the values for the IC50 (in the assay with A431 cell; in assay [1]; on EGFR tyrosine kinase) were 22 µM, 13 µM and 0.97 nM, respectively.

Turning to `C=C(F)C(=O)Nc1cc2c(Nc3ccc(F)cc3F)ncnc2cc1OCCCN1CCOCC1` [Compound 31, N-[4-(2,4-difluoro-phenylamino)-7-(3-morpholin-4-yl-propoxy)-quinazolin-6-yl]-2-fluoro-acrylamide], the half-maximal inhibitory concentration (IC50) turned out to be 6.5 µM in the assay on A431 cell, 6 µM in assay [1] and 1.4 nM on EGFR tyrosine kinase.

In the case of `C=C(F)C(=O)Nc1cc2c(Nc3cccc(Br)c3)ncnc2cc1OC` [Compound 52, N-[4-(3-bromo-phenylamino)-7-methoxy-quinazolin-6-yl]-2-fluoro-acrylamide], the IC50 in the assay on A431 cell amounted to 1.6 µM; in assay [1], 0.47 µM; on EGFR tyrosine kinase, 0.22 nM.

As to `C=C(F)C(=O)Nc1cc2c(Nc3ccc(OCC4CC4)c(Cl)c3)ncnc2cc1OCCCN1CCOCC1` [Compound 61], the results for the IC50 (in the assay on A431 cell; in assay [1]; against EGFR tyrosine kinase) were 0.8 µM, 1 µM and 4.5 nM, respectively.
